The nature of the data set: Mini-pig PK assay (plasma half-life). The conditions noted are these: Göttingen, minipig, iv. The procedure: (§1) The mini-pigs had two central venous catheters inserted which were used for intra venous (i.v.) dosing and bloodsampling. Compound was dissolved in 50 mM K2HPO4, 0.05% tween 80, pH=8.0 to a concentration of 180 nmol/ml. The pigs were dosed with 6 nmol compound/kg body weight. […] The blood samples were collected into test tubes containing EDTA buffer for stabilization and kept on ice for max. 20 minutes before centrifugation. The centrifugation procedure to separate plasma was; 4° C., 3000 rpm for 10 minutes. Plasma were collected and immediately transferred to Micronic tubes stored at −20° C. until assayed.
An additional mini-pig PK assay was used for measuring PK of the compounds of the invention. […] The animals had two central venous catheters inserted which were used for intra venous (i.v.) dosing and blood sampling. Compounds were dissolved in 10 mM Na2HPO4, 150 mM NaCl, 0.01% tween 80, pH=4.0 to concentrations in the range of 40 nmol/ml to 200 nmol/ml. The mini-pigs were dosed i.v. with 10 nmol compound/kg body weight, occasionally other doses such as 4 nmol/kg, 30 nmol/kg or 50 nmol/kg were administered. Each compound was dosed to 3 or 4 mini-pigs, and two compounds may be given simultaneously to the same animal. Blood were sampled pre-dose and 12 times during the first 10 hours post-dose. Blood were furthermore sampled once daily until 13 days post dosing. The blood samples were collected into test tubes containing EDTA buffer, trasylol and Val-Pyr for stabilization and kept on ice for max. 20 minutes. Samples were centrifuged at 4° C., 2000G for 10 minutes to separate plasma. Plasma were collected and immediately transferred to Micronic tubes stored at −20° C. until assayed.
Plasma samples were analysed by LC-MS on an LTQ-Orbitrap (ThermoFisher Scientific, Bremen) to which Accela HPLC pumps and an autosampler were connected (both from ThermoFisher). […] HPLC was performed on a Jupiter Proteo column (4μ) 90A (50×2.0 mm ID). […] The flow rate was 0.3 ml/min. For analysis of plasma samples, 30 μl plasma was precipitated with 90 μl ethanol. […] The heptane phase was removed after 5 min and the remaining solution was analysed by LC-MS as described above. For construction of plasma standards, compound was spiked to plasma (minipig) at the following concentrations: 1 nM, 2 nM, 5 nM, 10 nM, 20 nM, 50 nM, 100 nM, 200 nM. The plasma standards were treated as the samples. The lower limit of quantification was estimated to 2 nM.
Non-compartmental analysis (NCA): Plasma concentration-time profiles were analyzed by non-compartmental pharmacokinetics analysis (NCA) using WinNonlin Professional 5.0 (Pharsight Inc., Mountain View, Calif., USA). NCA was performed using the individual plasma concentration-time profiles from each animal.
For determination of plasma concentration of the PYY and PP peptide derivative or analogues thereof the following Methods 1-4 were used.
as §1, with “bloodsampling. The compound” for “bloodsampling. Compound”, “to an appropriate” for “to a”, “concentration (e.g. 25-500 nmol/mL).” for “concentration of 180 nmol/ml.”, “dosed intravenously (i.v.) or subcutaneously (s.c.)” for “dosed”, “with between 1 and 30” for “with 6”, “buffer (with Aprotinin 15000 KIE/mL and Val-Pyr 0.30 mM)” for “buffer”
An additional mini-pig PK assay was used for measuring PK of the compounds of the invention. […] The animals had two central venous catheters inserted which were used for intra venous (i.v.) dosing and blood sampling.

*1 amine or outer side, *2 acyl side, *3 side chain or, on linkers, in order; H or OH if unused. Where a SMILES comes first, the peptide text is derived from it. Side-chain parts run from the residue outwards. The star is where a group is joined. C20 diacid = O=C(O)CCCCCCCCCCCCCCCCCCC(=O)*; C18 diacid = O=C(O)CCCCCCCCCCCCCCCCC(=O)*; γGlu = O=C(O)[C@H](CCC(=O)[*:2])N[*:1]; Trx = NC[C@H]1CC[C@H](C(=O)O)CC1; AEEA = NCCOCCOCC(=O)O

As a reminder, the half-life is the time in which the quantity being followed falls by half. Take `CC[C@H](C)[C@H](NC(=O)[C@H](Cc1ccc(O)cc1)NC(=O)[C@H](CCCNC(=N)N)NC(=O)[C@H](CCCNC(=N)N)NC(=O)[C@H](CC(C)C)NC(=O)[C@H](CC(=O)O)NC(=O)[C@H](C)NC(=O)[C@H](C)NC(=O)[C@H](Cc1ccc(O)cc1)NC(=O)[C@H](CCC(N)=O)NC(=O)[C@H](C)NC(=O)[C@H](CC(C)C)NC(=O)[C@H](CCC(N)=O)NC(=O)[C@H](CCC(=O)O)NC(=O)[C@@H]1CCCN1C(=O)[C@@H](NC(=O)[C@H](C)NC(=O)[C@H](CC(N)=O)NC(=O)[C@H](CCCCNC(=O)COCCOCCNC(=O)COCCOCCNC(=O)CC[C@H](NC(=O)[C@H]1CC[C@H](CNC(=O)CCCCCCCCCCCCCCCCCCC(=O)O)CC1)C(=O)O)NC(=O)CNC(=O)[C@@H]1CCCN1C(=O)[C@H](Cc1ccc(O)cc1)NC(=O)[C@@H](NC(=O)[C@@H]1CCCN1C(=O)[C@H](CCC(=O)O)NC(=O)[C@H](CC(C)C)NC(=O)[C@@H]1CCCN1)C(C)C)[C@@H](C)O)C(=O)N[C@@H](CC(N)=O)C(=O)N[C@@H](CC(C)C)C(=O)N[C@@H](CC(C)C)C(=O)N[C@H](C(=O)N[C@@H](CCCNC(=N)N)C(=O)N[C@@H](CCC(N)=O)C(=O)N[C@@H](CCCNC(=N)N)C(=O)N[C@@H](Cc1ccc(O)cc1)C(N)=O)[C@@H](C)O` [SEQ ID NO: 39, N-epsilon10-[2-(2-{2-[2-(2-{2-[(S)-4-Carboxy-4-({trans-4-[(19-carboxynonadecanoylamino)methyl]cyclohexanecarbonyl}amino)butyrylamino]-ethoxy}ethoxy)acetylamino]ethoxy}ethoxy)acetyl][Lys10,Leu17,Leu30,Gln34]hPP2-36] (H-PLEPVYPGK([AEEA-AEEA-γGlu-Trx-C20 diacid])NATPEQLAQYAADLRRYINLLTRQRY-NH2; N-terminus and C-terminus assumed): the half-life (in vivo, 4 nmol/kg) is 32 h.
The molecule `CC[C@H](C)[C@H](NC(=O)[C@H](Cc1ccc(O)cc1)NC(=O)[C@H](CCCNC(=N)N)NC(=O)[C@H](CCCNC(=N)N)NC(=O)[C@H](CC(C)C)NC(=O)[C@H](CC(=O)O)NC(=O)[C@H](C)NC(=O)[C@H](C)NC(=O)[C@H](Cc1ccc(O)cc1)NC(=O)[C@H](CCC(N)=O)NC(=O)[C@H](C)NC(=O)[C@H](CC(C)C)NC(=O)[C@H](CCC(N)=O)NC(=O)[C@H](CCC(=O)O)NC(=O)[C@@H]1CCCN1C(=O)[C@@H](NC(=O)[C@H](C)NC(=O)[C@H](CC(N)=O)NC(=O)[C@H](CC(=O)O)NC(=O)CNC(=O)[C@@H]1CCCN1C(=O)[C@H](Cc1ccc(O)cc1)NC(=O)[C@@H](NC(=O)[C@@H]1CCCN1C(=O)[C@H](CCC(=O)O)NC(=O)[C@H](CC(C)C)NC(=O)[C@@H]1CCCN1)C(C)C)[C@@H](C)O)C(=O)N[C@@H](CC(N)=O)C(=O)N[C@@H](CC(C)C)C(=O)N[C@@H](CC(C)C)C(=O)N[C@H](C(=O)N[C@@H](CCCNC(=N)N)C(=O)N1CCC[C@H]1C(=O)N[C@@H](CCCCNC(=O)COCCOCCNC(=O)COCCOCCNC(=O)CC[C@H](NC(=O)CCCCCCCCCCCCCCCCC(=O)O)C(=O)O)C(=O)N[C@@H](Cc1ccc(O)cc1)C(N)=O)[C@@H](C)O` [SEQ ID NO: 47, N-epsilon35-[2-(2-{2-[2-(2-{2-[(S)-4-Carboxy-4-(17-carboxyheptadecanoylamino)butyrylamino]ethoxy}ethoxy)acetylamino]-ethoxy}ethoxy)acetyl][Leu17,Leu30,Lys35]hPP2-36] (H-PLEPVYPGDNATPEQLAQYAADLRRYINLLTRPK([AEEA-AEEA-γGlu-C18 diacid])Y-NH2) gave a half-life (10 nmol/kg) of 78 h.
As for `CC[C@H](C)[C@H](NC(=O)[C@H](Cc1ccc(O)cc1)NC(=O)[C@H](CCCNC(=N)N)NC(=O)[C@H](CCCCNC(=O)COCCOCCNC(=O)COCCOCCNC(=O)CC[C@H](NC(=O)[C@H]1CC[C@H](CNC(=O)CCCCCCCCCCCCCCCCCCC(=O)O)CC1)C(=O)O)NC(=O)[C@H](CC(C)C)NC(=O)[C@H](CC(=O)O)NC(=O)[C@H](C)NC(=O)[C@H](C)NC(=O)[C@H](Cc1ccc(O)cc1)NC(=O)[C@H](CCC(N)=O)NC(=O)[C@H](C)NC(=O)[C@H](CC(C)C)NC(=O)[C@H](CCC(N)=O)NC(=O)[C@H](CCC(=O)O)NC(=O)[C@@H]1CCCN1C(=O)[C@@H](NC(=O)[C@H](C)NC(=O)[C@H](CC(N)=O)NC(=O)[C@H](CC(=O)O)NC(=O)CNC(=O)[C@@H]1CCCN1C(=O)[C@H](Cc1ccc(O)cc1)NC(=O)[C@@H](NC(=O)[C@@H]1CCCN1C(=O)[C@H](CCC(=O)O)NC(=O)[C@H](CC(C)C)NC(=O)[C@@H]1CCCN1C(=O)[C@H](C)N)C(C)C)[C@@H](C)O)C(=O)N[C@@H](CC(N)=O)C(=O)N[C@@H](CC(C)C)C(=O)N[C@@H](CC(C)C)C(=O)N[C@H](C(=O)N[C@@H](CCCNC(=N)N)C(=O)N1CCC[C@H]1C(=O)N[C@@H](CCCNC(=N)N)C(=O)N[C@@H](Cc1ccc(O)cc1)C(N)=O)[C@@H](C)O` [SEQ ID NO: 71, N-epsilon25-[2-(2-{2-[2-(2-{2-[(S)-4-Carboxy-4-({trans-4-[(19-carboxynonadecanoylamino)methyl]cyclohexanecarbonyl}amino)butyrylamino]-ethoxy}ethoxy)acetylamino]ethoxy}ethoxy)acetyl][Leu17,Lys25,Leu30]hPP1-36] (H-APLEPVYPGDNATPEQLAQYAADLK([AEEA-AEEA-γGlu-Trx-C20 diacid])RYINLLTRPRY-NH2), under “in vivo, 13 nmol/kg”, the half-life is 13 h.
The molecule `CC[C@H](C)[C@H](NC(=O)[C@H](Cc1ccc(O)cc1)NC(=O)[C@H](CCCNC(=N)N)NC(=O)[C@H](CCCNC(=N)N)NC(=O)[C@H](CC(C)C)NC(=O)[C@H](CC(=O)O)NC(=O)[C@H](C)NC(=O)[C@H](C)NC(=O)[C@H](Cc1ccc(O)cc1)NC(=O)[C@H](CCC(N)=O)NC(=O)[C@H](C)NC(=O)[C@H](CC(C)C)NC(=O)[C@H](CCC(N)=O)NC(=O)[C@H](CCC(=O)O)NC(=O)[C@@H]1CCCN1C(=O)[C@H](CCCCNC(=O)COCCOCCNC(=O)COCCOCCNC(=O)CC[C@H](NC(=O)[C@H]1CC[C@H](CNC(=O)CCCCCCCCCCCCCCCCCCC(=O)O)CC1)C(=O)O)NC(=O)[C@H](C)NC(=O)[C@H](CC(N)=O)NC(=O)[C@H](CC(=O)O)NC(=O)CNC(=O)[C@@H]1CCCN1C(=O)[C@H](Cc1ccc(O)cc1)NC(=O)[C@@H](NC(=O)[C@@H]1CCCN1C(=O)[C@H](CCC(=O)O)NC(=O)[C@H](CC(C)C)NC(=O)[C@@H]1CCCN1C(=O)[C@H](C)N)C(C)C)C(=O)N[C@@H](CC(N)=O)C(=O)N[C@@H](CC(C)C)C(=O)N[C@@H](CC(C)C)C(=O)N[C@H](C(=O)N[C@@H](CCCNC(=N)N)C(=O)N[C@@H](CCC(N)=O)C(=O)N[C@@H](CCCNC(=N)N)C(=O)N[C@@H](Cc1ccc(O)cc1)C(=O)O)[C@@H](C)O` [SEQ ID NO: 74, N-epsilon13-[2-(2-{2-[2-(2-{2-[(S)-4-Carboxy-4-({trans-4-[(19-carboxynonadecanoylamino)methyl]cyclohexanecarbonyl}amino)butyrylamino]-ethoxy}ethoxy)acetylamino]ethoxy}ethoxy)acetyl][Leu17,Lys13,Gln34]hPP1-36 acid] (H-APLEPVYPGDNAK([AEEA-AEEA-γGlu-Trx-C20 diacid])PEQLAQYAADLRRYINLLTRQRY-OH; N-terminus assumed) had a half-life (16 nmol/kg) of 8 h.

Values taken from US20110275559A1, “Long-Acting Y2 and/or Y4 Receptor Agonists” (Novo Nordisk A/S, priority 2008, published 2011).
